Laboratory results from patent publication US20250325712A1, “TARGETING LIGANDS FOR DISEASE-TARGETED IMAGING AGENTS AND METHODS OF USE THEREFOR” (Curadel Surgical Innovations, Inc., priority 2024, published 2025).

Assay: Stability of dyes in 37° C. buffered fetal bovine serum (normalized absorbance and absorbance spectra over time)
Assay type: in vitro ADME
Conditions: compared to ZW800-1
Procedure: The normalized absorbance of ZW800-1 and ZW700-1c in 37° C. buffered FBS, pH 7.4 over time from 0 to 60 hours are shown in FIGS. 2-4.

stability: normalized absorbance over time (37° C. buffered FBS, pH 7.4, 0 to 60 hours): extreme stability | stability over time: changes in absorption spectra during metabolism in warm serum (warm serum (37° C. buffered FBS, pH 7.4, 0 to 48 hours)): high stability
Compound: CC1(C)C(/C=C/C(=C/C=C2/N(CCC[N+](C)(C)C)c3ccc(S(=O)(=O)[O-])cc3C2(C)C)c2ccc(CCC(=O)[O-])cc2)=[N+](CCC[N+](C)(C)C)c2ccc(S(=O)(=O)[O-])cc21 [ZW700-1c]
